Where “and” joins values, the source holds several entries; their conditions need not be identical. Equal values may be shown once.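 Assay format: 96-well plates, 48-hour exposure. Abbreviation: GI50, concentration required for 50% inhibition of growth. At the TGI there is no net growth.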
Tests used:
Assay in all cases: inhibition of tumour cell growth, NCI panel, 48 h
[1] = test system: DU-145 prostate
[2] = test system: SK-MEL-28 melanoma
[3] = test system: 786-0 renal
[4] = test system: A498 renal
[5] = test system: CCRF-CEM leukemia
[6] = test system: HCC-2998 colon
[7] = test system: IGROV1 ovarian
[8] = test system: SNB-75 CNS
[9] = test system: MCF7 breast
[10] = test system: MALME-3M melanoma
[11] = test system: K-562 leukemia
[12] = test system: SF-295 CNS
[13] = test system: U251 CNS
[14] = test system: SK-MEL-5 melanoma
[15] = test system: NCI/ADR-RES ovarian
[16] = test system: MDA-MB-435
[17] = test system: T-47D breast
[18] = test system: HCT-15 colon
[19] = test system: PC-3 prostate
[20] = test system: CAKI-1 renal
[21] = test system: KM12 colon
[22] = test system: SF-268 CNS
[23] = test system: HL-60(TB) leukemia
[24] = test system: OVCAR-3 ovarian
[25] = test system: HCT-116 colon
[26] = test system: LOX IMVI melanoma
[27] = test system: SR leukemia
[28] = test system: M14 melanoma
[29] = test system: SF-539 CNS
[30] = test system: NCI-H23 lung
[31] = test system: HOP-92 NSCLC
[32] = test system: MDA-N
[33] = test system: SN12C renal
[34] = test system: UACC-257 melanoma
[35] = test system: MDA-MB-231 breast
[36] = test system: SNB-19 CNS
[37] = test system: NCI-H226 lung
[38] = test system: OVCAR-8 ovarian
[39] = test system: HOP-62 NSCLC
[40] = test system: OVCAR-5 ovarian
[41] = test system: A549 NSCLC
[42] = test system: MOLT-4 leukemia
[43] = test system: BT-549 breast
[44] = test system: RPMI-8226 leukemia
[45] = test system: SW-620 colon
[46] = test system: HS 578T breast
[47] = test system: SK-OV-3 ovarian
[48] = test system: TK-10 renal
[49] = test system: SK-MEL-2 melanoma
[50] = test system: HT29 colon
[51] = test system: NCI-H460 lung
[52] = test system: NCI-H522 lung
[53] = test system: UACC-62 melanoma
[54] = test system: EKVX NSCLC
[55] = test system: COLO 205 colon
[56] = test system: OVCAR-4 ovarian
[57] = test system: ACHN renal
[58] = test system: UO-31 renal
[59] = test system: RXF 393 renal

SMILES: COc1ccc2c(c1OC)CN1CCc3cc4c(cc3C1C2)OCO4 (centres undefined)
- TGI [1]: > 100 µM
- TGI [2]: > 100 µM
- TGI [3]: > 100 µM
- TGI [4]: > 100 µM
- GI50 [5]: > 100 µM
- TGI [5]: > 100 µM
- TGI [6]: > 100 µM
- TGI [7]: > 100 µM
- TGI [8]: > 100 µM
- TGI [9]: > 100 µM
- TGI [10]: > 100 µM
- TGI [11]: > 100 µM
- TGI [12]: > 100 µM
- TGI [13]: > 100 µM
- TGI [14]: > 100 µM
- TGI [15]: > 100 µM
- TGI [16]: > 100 µM
- TGI [17]: > 100 µM
- TGI [18]: > 100 µM
- TGI [19]: > 100 µM
- TGI [20]: > 100 µM
- TGI [21]: > 100 µM
- TGI [22]: > 100 µM
- TGI [23]: > 100 µM
- TGI [24]: > 100 µM
- TGI [25]: > 100 µM
- TGI [26]: > 100 µM
- TGI [27]: > 100 µM
- TGI [28]: > 100 µM
- TGI [29]: > 100 µM
- TGI [30]: > 100 µM
- TGI [31]: > 100 µM
- TGI [32]: > 100 µM
- TGI [33]: > 100 µM
- TGI [34]: > 100 µM
- TGI [35]: > 100 µM
- TGI [36]: > 100 µM
- TGI [37]: > 100 µM
- TGI [38]: > 100 µM
- TGI [39]: > 100 µM
- TGI [40]: > 100 µM
- TGI [41]: > 100 µM
- TGI [42]: > 100 µM
- TGI [43]: > 100 µM
- TGI [44]: > 100 µM
- TGI [45]: > 100 µM
- TGI [46]: > 100 µM
- TGI [47]: > 100 µM
- TGI [48]: > 100 µM
- TGI [49]: > 100 µM
- GI50 [50]: 30.8 µM and 76.1 µM
- TGI [50]: > 100 µM
- TGI [51]: > 100 µM
- TGI [52]: > 100 µM
- TGI [53]: > 100 µM
- TGI [54]: > 100 µM
- TGI [55]: > 100 µM
- TGI [56]: > 100 µM
- TGI [57]: > 100 µM
- TGI [58]: > 100 µM

SMILES: O=P(O)(OP(=O)(O)c1ccccc1)c1ccccc1 (tested in a mixture with another compound)
- TGI [1]: > 100 µM
- TGI [2]: > 100 µM
- TGI [3]: > 100 µM
- TGI [4]: > 100 µM
- TGI [5]: > 100 µM
- TGI [6]: > 100 µM
- TGI [7]: > 100 µM
- TGI [8]: > 100 µM
- TGI [9]: > 100 µM
- TGI [10]: > 100 µM
- TGI [11]: > 100 µM
- TGI [12]: > 100 µM
- TGI [13]: > 100 µM
- TGI [14]: > 100 µM
- TGI [15]: > 100 µM
- TGI [16]: > 100 µM
- TGI [17]: > 100 µM
- TGI [18]: > 100 µM
- TGI [19]: > 100 µM
- TGI [20]: > 100 µM
- TGI [21]: > 100 µM
- TGI [22]: > 100 µM
- TGI [23]: > 100 µM
- TGI [24]: > 100 µM
- TGI [25]: > 100 µM
- TGI [26]: > 100 µM
- TGI [27]: > 100 µM
- TGI [28]: > 100 µM
- TGI [30]: > 100 µM
- TGI [31]: > 100 µM
- TGI [32]: > 100 µM
- TGI [33]: > 100 µM
- TGI [34]: > 100 µM
- TGI [35]: > 100 µM
- TGI [36]: > 100 µM
- TGI [37]: > 100 µM
- TGI [38]: > 100 µM
- TGI [39]: > 100 µM
- TGI [40]: > 100 µM
- TGI [41]: > 100 µM
- TGI [43]: > 100 µM
- TGI [44]: > 100 µM
- TGI [45]: > 100 µM
- TGI [46]: > 100 µM
- TGI [47]: > 100 µM
- TGI [48]: > 100 µM
- TGI [49]: > 100 µM
- TGI [50]: > 100 µM
- TGI [51]: > 100 µM
- TGI [52]: > 100 µM
- TGI [53]: > 100 µM
- TGI [54]: > 100 µM
- TGI [55]: > 100 µM
- TGI [56]: > 100 µM
- TGI [57]: > 100 µM
- TGI [58]: > 100 µM
- TGI [59]: > 100 µM

SMILES: O=C(O)/C=N/NC(=S)NC1CCCCC1
- TGI [1]: > 100 µM
- TGI [2]: > 100 µM
- TGI [3]: > 100 µM
- TGI [4]: > 100 µM
- TGI [5]: > 100 µM
- TGI [6]: > 100 µM
- TGI [7]: > 100 µM
- TGI [8]: > 100 µM
- TGI [9]: > 100 µM
- TGI [10]: > 100 µM
- TGI [11]: > 100 µM
- TGI [12]: > 100 µM
- TGI [13]: > 100 µM
- TGI [14]: > 100 µM
- TGI [15]: > 100 µM
- TGI [16]: > 100 µM
- TGI [17]: > 100 µM
- TGI [18]: > 100 µM
- TGI [19]: > 100 µM
- TGI [20]: > 100 µM
- TGI [21]: > 100 µM
- TGI [23]: > 100 µM
- TGI [24]: > 100 µM
- TGI [25]: > 100 µM
- TGI [26]: > 100 µM
- TGI [27]: > 100 µM
- TGI [28]: > 100 µM
- TGI [29]: > 100 µM
- TGI [30]: > 100 µM
- TGI [31]: > 100 µM
- TGI [32]: > 100 µM
- TGI [33]: > 100 µM
- TGI [34]: > 100 µM
- TGI [35]: > 100 µM
- TGI [36]: > 100 µM
- TGI [37]: > 100 µM
- TGI [38]: > 100 µM
- TGI [39]: > 100 µM
- TGI [40]: > 100 µM
- TGI [41]: > 100 µM
- TGI [42]: > 100 µM
- TGI [43]: > 100 µM
- TGI [44]: > 100 µM
- TGI [45]: > 100 µM
- TGI [46]: > 100 µM
- TGI [47]: > 100 µM
- TGI [48]: > 100 µM
- TGI [49]: > 100 µM
- TGI [50]: > 100 µM
- TGI [51]: > 100 µM
- TGI [52]: > 100 µM
- TGI [53]: > 100 µM
- TGI [54]: > 100 µM
- TGI [55]: > 100 µM
- TGI [56]: > 100 µM
- TGI [57]: > 100 µM
- TGI [58]: > 100 µM

Source: PubChem BioAssay (NCI)
